Data taken from US20140039050A1, “METHOD FOR […] INFECTION IN A FE[…]” (priority 2011, published 2014).

Experiments:
Type in all cases: cell-based
bacteria = assay: Serial dilution and cultivation on Petri films after exposure of yeast cream solution (Method 1), bacteria; settings: exposure +30° C. 30 minutes, incubated +35° C. 48 hours
Experimental: (§1) Total viable bacteria and viable yeasts in the samples herein were measured as colony forming units (CFU) per unit of volume (i.e., CFU/ml). The viability of yeasts and their ability to reproduce were measured by using a microscopical method, where specific dye (erythrosine) was used to visualize the amount and form (live, dead, budding) of yeast cells.
(§2) The yeast cream samples (recovered from the wine, through a centrifuge) were diluted with lake water in a ratio of 30%+70%, respectively. The diluted yeast cream samples (later on called yeast cream solutions) were exposed to varying concentrations of performic acid in the equilibrium solution as follows: 49.5 ppm, 74.3 ppm and 99 ppm. In a control sample, no performic acid was added to the yeast cream solution. The effect of performic acid on bacteria was determined by one method (method 1), and on yeast cells by two methods (methods 1 and 2).
(§3) The exposed samples and the control sample were held in +30° C. for 30 minutes, after which the amount of survived microbes was enumerated. The method used was a Serial dilution and cultivation method, where the effect of performic acid on the yeast cream solution was measured via dilution and cultivation of the sample after the exposure, to enumerate the amount of microbial growth. This method entail the dilution of each is sample by a factor large enough to enable clear separation of individual microbial colonies on Petri™ films (from 3M); thus allowing the colonies to be individually counted. Where diluted samples had been applied and inoculated in, the Petri™ films were incubated at +35° C. for 48 hours (bacteria) or at +30° C. for 48 hours (yeasts).

yeasts = assay: Serial dilution and cultivation on Petri films after exposure of yeast cream solution (Method 1), yeasts; settings: exposure +30° C. 30 minutes, incubated +30° C. 48 hours
Experimental: as §1, §2, §3

yeast cells = assay: Neubauer chamber microscopy with erythrosine dye (Method 2), yeast cell count, viability and budding; settings: exposure +30° C. 5 hours; for Reproductive yeast cells %: budding cells over total living cells; for CFU/ml Yeasts 48 h, Neubauer count: total yeast cells; for Yeast cell viability %: viable cells over total cells (live+dead)
Experimental: as §1, §2
The exposed samples and the control sample were held in +30° C. for 5 hours, after which the specific parameters of yeast cells were measured. These parameters included the amount of living yeast cells, dead yeast cells and budding yeast cells (i.e. reproducing yeast cells). The method used was a standard method, commonly adopted by Brazilian Sugar Cane Industry mills. In the method, a Neubauer chamber was filled with approximately 10 μl of the exposed sample, where the erythrosine dye had been mixed in. On the cover slip, a drop of immersion oil was added, and the above mentioned yeast cell parameters were evaluated by using an immersion objective (100×) of the microscope. The cells that presented pink coloration were counted as dead cells, and uncolored cells as living cells. The budding cells were determined on the basis of the shape of the yeast cell.
The total amount of the yeast cells was counted and compared to the result obtained with Method 1. Results are provided in Table 1 (Neubauer count of yeast cells). The cell viability indicates the percentage of viable cells over total cells (live+dead). The cell reproductive % indicates the percentage of budding cells over total living cells.

[1] = 49.5 ppm performic acid in yeast cream solution
[2] = 74.3 ppm performic acid in yeast cream solution
[3] = 99 ppm performic acid in yeast cream solution

Compound: O=COO [performic acid]
- CFU/ml Bacteria 48 h, MIC (bacteria; [1]): 60 CFU/ml
- CFU/ml Bacteria 48 h, MIC (bacteria; [2]): 70 CFU/ml
- CFU/ml Bacteria 48 h, MIC (bacteria; [3]): 30 CFU/ml
- CFU/ml Yeasts 48 h, MIC (yeasts; [1]): 1 000 000 000 CFU/ml
- CFU/ml Yeasts 48 h, MIC (yeasts; [2]): 6 100 000 000 CFU/ml
- CFU/ml Yeasts 48 h, MIC (yeasts; [3]): 1 000 000 000 CFU/ml
- Reproductive yeast cells % (yeast cells; [1]): 6.8%
- CFU/ml Yeasts 48 h, Neubauer count (yeast cells; [1]): 380 000 000 CFU/ml
- Yeast cell viability % (yeast cells; [1]): 71.1%
- Reproductive yeast cells % (yeast cells; [2]): 8.9%
- CFU/ml Yeasts 48 h, Neubauer count (yeast cells; [2]): 400 000 000 CFU/ml
- Yeast cell viability % (yeast cells; [2]): 72.1%
- Reproductive yeast cells % (yeast cells; [3]): 4.1%
- CFU/ml Yeasts 48 h, Neubauer count (yeast cells; [3]): 640 000 000 CFU/ml
- Yeast cell viability % (yeast cells; [3]): 72.3%
